Measurements as given in patent US8841233B2, “Herbicidal compositions comprising 4-amino-3-chloro-5-fluoro-6-(4-chloro-2-fluoro-3-methoxyphenyl) pyridine-2-carboxylic acid or a derivative thereof and 4-hydroxyphenyl-pyruvate dioxygenase (HPPD) inhibitors” (Dow Agrosciences LLC, priority 2012, dated 2014).

Assays:
ECHCO = assay: In-water applied weed control, transplanted paddy rice, greenhouse (Example II); type: in vivo, Echinochloa colona (L.) Link
Description: (§1) Evaluation of in-Water Applied Herbicidal Mixtures for Weed Control in Transplanted Paddy Rice
(§2) Weed seeds or nutlets of the desired test plant species were planted in puddled soil (mud) prepared by mixing a shredded, non-sterilized mineral soil (50.5 percent silt, 25.5 percent clay, and 24 percent sand, with a pH of about 7.6 and an organic matter content of about 2.9 percent) and water at a 1:1 volumetric ratio. The prepared mud was dispensed in 365 mL aliquots into 16-ounce (oz.) non-perforated plastic pots with a surface area of 86.59 square centimeters (cm^2) leaving a headspace of 3 centimeters (cm) in each pot. Mud was allowed to dry overnight prior to planting or transplanting. Rice seeds were planted in Sun Gro MetroMix® 306 planting mixture, which typically has a pH of 6.0 to 6.8 and an organic matter content of about 30 percent, in plastic plug trays. Seedlings at the second or third leaf stage of growth were transplanted into 840 mL of mud contained in 32-oz. non-perforated plastic pots with a surface area of 86.59 cm^2 4 days prior to herbicide application. The paddy was created by filling the headspace of the pots with 2.5 to 3 cm of water. When required to ensure good germination and healthy plants, a fungicide treatment and/or other chemical or physical treatment was applied. The plants were grown for 4-22 days in a greenhouse with an approximate 14 h photoperiod which was maintained at about 29′C during the day and 26° C. during the night. Nutrients were added as Osmocote® (19:6:12, N:P:K+ minor nutrients) at 2 g per 16-oz. pot and 4 g per 32-oz. pot. Water was added on a regular basis to maintain the paddy flood, and supplemental lighting was provided with overhead metal halide 1000-Watt lamps as necessary. The plants were employed for testing when they reached the first through fourth true leaf stage.
Treatments consisted of the acid or esters of 4-amino-3-chloro-5-fluoro-6-(4-chloro-2-fluoro-3-methoxy-phenyl)pyridine-2-carboxylic acid (compound A) each formulated as an SC (suspension concentrate) and various herbicidal components alone and in combination. Forms of compound A were applied on an acid equivalent basis. […]
(§3) Treatment requirements for each compound or herbicidal component were calculated based upon the rates being tested, the concentration of active ingredient or acid equivalent in the formulation, an application volume of 2 mL per component per pot, and an application area of 86.59 cm^2 per pot.
(§4) For formulated compounds, a measured amount was placed in an individual 100 or 200 mL glass vial and was dissolved in a volume of 1.25% (v/v) Agri-Dex® crop oil concentrate to obtain application solutions. […]

IPOHE = assay: Pre-emergence soil-applied weed control, greenhouse (Example III); type: in vivo, Ipomoea hederacea (L.) Jacq.
Description: Evaluation of Pre-emergence Soil-Applied Herbicidal Mixtures for Weed Control
Seeds or nutlets of the desired test plant species were planted in a soil matrix prepared by mixing a loam soil (32 percent silt, 23 percent clay, and 45 percent sand, with a pH of about 6.5 and an organic matter content of about 1.9 percent) and calcareous grit in an 80 to 20 ratio. The soil matrix was contained in plastic pots with a volume of 1 quart and a surface area of 83.6 square centimeters (cm^2).
Treatments consisted of the benzyl ester of 4-amino-3-chloro-5-fluoro-6-(4-chloro-2-fluoro-3-methoxy-phenyl)pyridine-2-carboxylic acid (compound A) formulated as an SC (suspension concentrate) and various herbicidal components alone and in combination. Forms of compound A were applied on an acid equivalent basis.
Other herbicidal components were applied on an acid equivalent or active ingredient basis and included the 4-hydroxyphenyl pyruvate dioxygenase (HPPD)-inhibiting herbicide, isoxaflutole, formulated as Balance Pro®.
Treatment requirements were calculated based upon the rates being tested, the concentration of active ingredient or acid equivalent in the formulation, and a 12 mL application volume at a rate of 187 L/ha.
For treatments comprised of formulated compounds, measured amounts of compounds were placed individually in 25 mL glass vials and diluted in a volume of 1.25% (v/v) Agri-Dex® crop oil concentrate (COC) to obtain 12× stock solutions. […] Application solutions were prepared by adding an appropriate amount of each stock solution (e.g., 1 mL) and diluted to the appropriate final concentrations with the addition of 10 mL of an aqueous mixture of 1.25% (v/v) COC so that the final spray solutions contained 1.25% (v/v) COC.
All stock solutions and applications solutions were visually inspected for compound compatibility prior to application. Spray solutions were applied to the soil with an overhead Mandel track sprayer equipped with a 8002E nozzles calibrated to deliver 187 L/ha over an application area of 0.503 m^2 at a spray height of 18 inches (46 cm) above average pot height. Control pots were sprayed in the same manner with the solvent blank.
The treated and control pots were placed in a greenhouse and top watered as needed. When required to ensure good germination and healthy plants, a fungicide treatment and/or other chemical or physical treatment was applied. […] After approximately 4 weeks, the condition of the test plants as compared with that of the untreated plants was determined visually and scored on a scale of 0 to 100 percent where 0 corresponds to no injury or growth inhibition and 100 corresponds to complete kill. […]

SCPJU = assay: In-water applied weed control, transplanted paddy rice, greenhouse (Example II); type: in vivo, Schoenoplectus juncoides (Roxb.) Palla; details: 4.38 gae/ha
Description: as §1
as §2, with “Water was added on a regular basis to maintain the paddy flood, and supplemental lighting was provided with overhead metal halide 1000-Watt lamps as necessary. The plants were employed for testing when they reached the first through fourth true leaf stage.” left out
as §3, §4

SMILES	Visual Weed Control (%) - 21 DAA ECHCO Obs (ECHCO; 8.75 gae/ha)	Visual Weed Control (%) - 21 DAA ECHCO Obs (ECHCO; 17.5 gae/ha)	Visual Weed Control (%) - 32 DAA IPOHE Obs (IPOHE; 8 gae/ha)	Visual Weed Control (%) - 32 DAA IPOHE Obs (IPOHE; 16 gae/ha)	Visual Weed Control (%) - 32 DAA IPOHE Obs (IPOHE; 32 gae/ha)	Visual Weed Control (%) - 21 DAA SCPJU Obs (SCPJU)
COc1c(Cl)ccc(-c2nc(C(=O)O)c(Cl)c(N)c2F)c1F [Compound A Acid, 4-amino-3-chloro-6-(4-chloro-2-fluoro-3-methoxyphenyl)-5-fluoropyridine-2-carboxylic acid]	0%	20%				
COc1c(Cl)ccc(-c2nc(C(=O)OCc3ccccc3)c(Cl)c(N)c2F)c1F [Compound A Benzyl Ester, benzyl ester of 4-amino-3-chloro-5-fluoro-6-(4-chloro-2-fluoro-3-methoxy-phenyl)pyridine-2-carboxylic acid]			5%	10%	10%	70%
